What was measured:
[1] = Oxygen content decay of O2-saturated dispersions on ambient air equilibration; conditions: first-order fit, SDS 9 mM, Triton X-100 3.8 mM; for Release rate (oxygen): PFTD-PEG 3.8 mM
Excerpt: Another commonly used method consists in measuring the rate of decrease of the oxygen concentration of a given micellar solution from O2-saturation to equilibrium with ambient air. In the case of perfluorinated micelles, any observed difference in deoxygenation rate can be directly related the diffusion of O2 from the perfluorinated core to the aqueous medium while oxygen dissolved in the saturated dispersant (i.e. water) escapes to the atmosphere.
To assess the dioxygen release capacity of PFTD-PEG micelles, colloids (4 mL, c=3.8 mM and 7.6 mM) were pre-saturated with dioxygen under agitation in a sealed round-bottom flask. After saturation, agitation was stopped and the PFTD-PEG micellar suspension was left to equilibrate with ambient air. Evolution of dioxygen concentration in the medium over time was recorded using a dissolved dioxygen sensor.
In this equation, y0 corresponds to the value of y at t=0 s while A corresponds to the amplitude of the curve such that A=Plateau−y0. This model provides essential parameters such as the oxygen half-life and the oxygen release rate from the different micellar suspensions.

[2] = Oxygen release from O2-saturated colloid injected into degassed water; assay type: physicochemical; conditions: 200 μL of 7.6 mM surfactant colloid into degassed water
Procedure: To this end, a small volume of oxygen-saturated micelle colloid was injected with variable PFTD-PEG concentrations into a large volume of degassed water and the release of oxygen was monitored by continuous electrochemical monitoring over time (FIG. 3A). From this set of experiments, a clear correlation between the micelle concentration and the amount of released oxygen was observed. In fact, 15 min after addition of 200 μL of a 5, 10, or 20 mg mL^−1 PFTD-PEG colloid to 100 mL of degassed water, the oxygen concentration reached values of 2.9, 4.3, and 5.6 μM, respectively. As a reference, the oxygen concentration reached only 1.1 μM when the same volume of oxygen-saturated water was added instead of the micelle colloid. The effect of the fluorinated PFTD-PEG micelles on oxygen delivery was compared to that of micelles obtained from commonly used amphiphiles, namely sodium dodecyl sulfate (SDS) and Triton X100.

| Compound | Release rate (oxygen) [1] | t1/2 (oxygen half-life) ([1]; PFTD-PEG 3.8 mM (10 mg mL^−1)) [min] | oxygen concentration [2] [mM] |
| --- | --- | --- | --- |
| Triton X-100 | 2.49 ± 0.04 10^−4 s^−1 | 46.422 ± 0.832 | 3.6 |
| CCCCCCCCCCCCOS(=O)(=O)[O-].[Na+] [SDS, sodium dodecyl sulfate] | 2.61 ± 0.03 10^−4 s^−1 |  | 2.7 |

Reference: patent US20260199236A1, “PERFLUORINATED MICELLES AND MEDICAL USES THEREOF” (COMMISSARIAT A L'ENERGIE ATOMIQUE ET AUX ENERGIES …, priority 2022, published 2026)
